Measured values as given in US20090191193A1, “Aryl Vinyl Sulfides, Sulfones, Sulfoxides and Sulfonamides, Derivatives Thereof and Therapeutic Uses Thereof” (TEMPLE UNIVERSITY-OF THE COMMONWEALTH SYSTEM OF HIGHER …, priority 2006, published 2009).

Tests used:
[1] = system: DU145 (prostate cancer); experiment: Effect on tumor cell lines, viable cell count by trypan blue exclusion (Latham et al.): DU145; type: cell-based; details: DU145 prostate cancer cells, viable cell count 96 hours after treatment
Procedure: (§1) The effect of the compounds of the invention on tumor cells was determined by the assay described by Latham et al., Oncogene 12:827-837 (1996). Tumor cells DU145 (prostate cancer), K562 (chronic myelogenous leukaemia), BT20 (breast carcinoma), H157 (non small cell lung carcinoma), or DLD1 (colon carcinoma) were plated in 6-well dishes at a cell density of 1.0×10^5 cells per 35-mm^2 well. […] The total number of viable cells was determined 96 hours later by trypsinizing the wells and counting the number of viable cells, as determined by trypan blue exclusion, using a hemacytometer. Normal HFL cells were treated with the same compounds under the same conditions of concentration and time.

[2] = system: K562 (chronic myelogenous leukaemia); experiment: Effect on tumor cell lines, viable cell count by trypan blue exclusion (Latham et al.): K562; type: cell-based; details: K562 chronic myelogenous leukaemia cells, viable cell count 96 hours after treatment
Procedure: as §1

| Structure (SMILES) | IC50 ([1]; Homo sapiens, DU-145, 96 h) [µM] | IC50 ([2]; Homo sapiens, K562, 96 h) [µM] | melting point [°C] | IC50 [1] [µM] | IC50 [2] [µM] |
| --- | --- | --- | --- | --- | --- |
| N#C/C(=C\c1ccc(C#N)cc1F)S(=O)(=O)Cc1ccc(Br)cc1 [Example 16] | 75 | 10 | 202 to 204 |  |  |
| COc1cccc(OC)c1/C=C(\C#N)S(=O)(=O)Cc1ccc(Br)cc1 [Example 18] | 25 | 10 | 156 to 158 |  |  |
| N#C/C(=C\c1c(F)c(F)c(F)c(F)c1F)S(=O)(=O)Cc1ccc(Cl)cc1 [Example 21] | 50 | 25 | 154 to 156 |  |  |
| COc1ccc(CS(=O)(=O)/C(C#N)=C/c2c(F)c(F)c(F)c(F)c2F)cc1[N+](=O)[O-] [Example 35] | 25 | 1 | 144 to 146 |  |  |
| COc1ccc(CS(=O)(=O)/C(C#N)=C/c2c(F)c(F)c(F)c(F)c2F)cc1OS(=O)(=O)c1ccc(C)cc1 [Example 38, (E)-2-[(4-methoxy-3-(4-methylphenylsulfonyloxy)phenyl)methanesulfonyl]-3-(2,3,4,5,6-pentafluorophenyl)acrylonitrile] | > 100 | 50 to 100 | 170 to 172 |  |  |
| Cc1cc(/C=C(\C#N)S(=O)(=O)Cc2ccc(Cl)cc2)ccc1F [Example 42] | 50 to 100 | 50 to 100 | 140 to 145 |  |  |
| COc1ccc(/C=C(\C#N)S(=O)(=O)Cc2ccc(Cl)cc2)cc1O [Example 44] | > 100 | 50 to 100 | 155 to 165 |  |  |
| N#C/C(=C\c1ccc(Br)cc1)S(=O)(=O)Cc1ccc(Cl)cc1 [Example 45] | 50 to 100 | 50 to 100 | 168 to 180 |  |  |
| N#C/C(=C\c1ccc([N+](=O)[O-])cc1F)S(=O)(=O)Cc1ccc(Cl)cc1 [Example 48] | 1 to 10 | 1 to 10 | 243 to 253 |  |  |
| N#C/C(=C\c1ccc(Cl)c(Cl)c1)S(=O)(=O)Cc1ccc(Cl)cc1 [Example 52] | 25 to 50 | 10 to 25 | 145 to 155 |  |  |
| COc1cc(OC)c(/C=C(\C#N)S(=O)(=O)Cc2ccc(Cl)cc2)c(OC)c1 [Example 53] | 50 to 100 | 50 to 100 | 177 to 180 |  |  |
| CCOc1cc(/C=C(\C#N)S(=O)(=O)Cc2ccc(Cl)cc2)ccc1O [Example 54] | > 100 | 50 to 100 | 155 to 169 |  |  |
| CC(=O)Oc1ccc(/C=C(\C#N)S(=O)(=O)Cc2ccc(Cl)cc2)cc1 [Example 57] | 25 to 50 | 25 to 50 | 192 to 202 |  |  |
| CN(C)c1ccc(/C=C(\C#N)S(=O)(=O)Cc2ccc(Cl)cc2)cc1 [Example 58] | 50 to 100 | 25 to 50 |  |  |  |
| N#C/C(=C\c1ccc(O)c([N+](=O)[O-])c1)S(=O)(=O)Cc1ccc(Cl)cc1 [Example 59] | 50 to 100 | 50 to 100 | 195 to 205 |  |  |
| N#C/C(=C\c1ccc(Cl)cc1)S(=O)(=O)Cc1ccc(Cl)cc1 [Example 61] | 50 to 100 | 25 to 50 | 145 to 168 |  |  |
| Cc1ccc(/C=C(\C#N)S(=O)(=O)Cc2ccc(Cl)cc2Cl)s1 [Example 63] | > 100 | > 100 | 118 to 124 |  |  |
| CN(C)c1ccc(/C=C(\C#N)S(=O)(=O)Cc2ccc(F)cc2)cc1 [Example 64] | 50 to 100 | 50 to 100 | 135 to 145 |  |  |
| COc1ccc(/C=C(\C#N)S(=O)(=O)Cc2ccc(Cl)cc2Cl)c(F)c1 [Example 65] | 50 to 100 | 50 to 100 | 140 to 155 |  |  |

| Structure (SMILES) | IC50 ([1]; Homo sapiens, DU-145, 96 h) [µM] | IC50 ([2]; Homo sapiens, K562, 96 h) [µM] | melting point [°C] | IC50 [1] [µM] | IC50 [2] [µM] |
| --- | --- | --- | --- | --- | --- |
| Cc1ccc(/C=C(\C#N)S(=O)(=O)Cc2ccc(Cl)cc2)cc1C [Example 66] | 50 to 100 | 50 to 100 | 191 to 202 |  |  |
| N#C/C(=C\c1ccc(-c2ccccc2)cc1)S(=O)(=O)Cc1ccc(Cl)cc1 [Example 67] |  |  |  | > 100 | > 100 |
| N#C/C(=C\c1c[nH]c2ccccc12)S(=O)(=O)Cc1ccc(Cl)cc1 [Example 68] | 25 to 50 | 10 to 25 | 200 to 205 |  |  |
| N#C/C(=C\c1ccccc1)S(=O)(=O)Cc1ccc(Cl)cc1 [Example 69] | > 100 | > 100 | 142 to 157 |  |  |
| N#C/C(=C\c1ccccc1OCc1ccccc1)S(=O)(=O)Cc1ccc(Cl)cc1 [Example 70] | > 100 | > 100 | 129 to 137 |  |  |
| CSc1ccc(/C=C(\C#N)S(=O)(=O)Cc2ccc(Cl)cc2Cl)cc1 [Example 76] |  |  |  | 50 to 100 | 50 to 100 |
| CSc1ccc(/C=C(\C#N)S(=O)(=O)Cc2ccc(F)cc2)cc1 [Example 87] |  |  |  | 25 to 50 | 25 to 50 |
| Cc1ccsc1/C=C(\C#N)S(=O)(=O)Cc1ccc(Cl)cc1Cl [Example 102] |  |  |  | > 100 | 50 to 100 |
| Cc1ccsc1/C=C(\C#N)S(=O)(=O)Cc1ccc(Cl)cc1 [Example 120] |  |  |  | 50 to 100 | 25 to 50 |
| Cc1ccsc1/C=C(\C#N)S(=O)(=O)Cc1ccccc1 [Example 127] |  |  |  | > 100 | > 100 |
| N#C/C(=C\c1ccc(-c2ccccc2)cc1)S(=O)(=O)Cc1ccccc1 [Example 138] |  |  |  | > 100 | > 100 |
| COc1ccc(CS(=O)(=O)/C(C#N)=C/c2ccc(-c3ccccc3)cc2)cc1 [Example 140] |  |  |  | > 100 | > 100 |
| COc1ccc(CS(=O)(=O)/C(=C/c2c(OC)cc(OC)cc2OC)[N+](=O)[O-])cc1 [Example 188] | < 1 | 2 |  |  |  |
| N#C/C(=C\c1ccc(-c2ccccc2)cc1)S(=O)(=O)Nc1ccc(Br)cc1 [Example 220] |  |  |  | 50 to 100 | 10 to 25 |
| N#C/C(=C\c1ccc(-c2ccccc2)cc1)S(=O)(=O)Nc1ccc(F)cc1 [Example 239] |  |  |  | 50 to 100 | 10 to 25 |
| Cc1ccc(NS(=O)(=O)/C(C#N)=C/c2ccc(-c3ccccc3)cc2)c(C)c1 [Example 260] |  |  |  | 50 to 100 | 25 to 50 |
| CSc1ccc(/C=C(\C#N)S(=O)(=O)Nc2ccc(C)cc2C)cc1 [Example 276] |  |  |  | > 100 | > 100 |
| COc1ccc(NS(=O)(=O)/C(C#N)=C/c2ccc(-c3ccccc3)cc2)cc1 [Example 286] |  |  |  | 50 to 100 | 50 to 100 |
| COc1ccc(NS(=O)(=O)/C(C#N)=C/c2ccc(SC)cc2)cc1 [Example 293] |  |  |  | > 100 | > 100 |

The next lines start with results.

| IC50 ([1]; Homo sapiens, DU-145, 96 h) [µM] | IC50 ([2]; Homo sapiens, K562, 96 h) [µM] | melting point [°C] | Structure (SMILES) | IC50 [1] [µM] | IC50 [2] [µM] |
| --- | --- | --- | --- | --- | --- |
| 25 | 1 | 110 to 112 | COc1ccc(CS(=O)(=O)/C(C#N)=C/c2c(F)c(F)c(F)c(F)c2F)cc1 [Example 11] |  |  |
| 50 | 10 | 146 to 148 | N#C/C(=C\c1c(F)c(F)c(F)c(F)c1F)S(=O)(=O)Cc1ccc(Br)cc1 [Example 19] |  |  |
| 75 | 10 | 158 to 160 | COc1cc(OC)c(/C=C(\C#N)S(=O)(=O)Cc2ccc(Br)cc2)c(OC)c1 [Example 20] |  |  |
| 25 | 5 | 198 to 200 | COc1cc(OC)c(/C=C(\C#N)S(=O)(=O)Cc2ccc(OC)c(N)c2)c(OC)c1 [Example 36] |  |  |
| 1 to 10 | 1 to 10 | 162 to 164 | COc1cc(OC)c(/C=C(\C#N)S(=O)(=O)Cc2ccc(OC)c(F)c2)c(OC)c1 [Example 39] |  |  |
| 25 to 50 | 1 to 10 | 123 to 126 | Cc1ccc(C)c(/C=C(\C#N)S(=O)(=O)Cc2ccc(Cl)cc2)c1 [Example 40] |  |  |
| 50 to 100 | 50 to 100 | 124 to 126 | N#C/C(=C\c1ccc(F)cc1Cl)S(=O)(=O)Cc1ccc(Cl)cc1 [Example 41] |  |  |
| > 100 | > 100 | 120 to 128 | COc1ccc(/C=C(\C#N)S(=O)(=O)Cc2ccc(Cl)cc2)c(OC)c1OC [Example 46] |  |  |
| 50 to 100 | 50 to 100 | 145 to 150 | N#C/C(=C\c1ccc(F)cc1)S(=O)(=O)Cc1ccc(Cl)cc1 [Example 47] |  |  |
| > 100 | 50 to 100 | 145 to 155 | COc1ccc(/C=C(\C#N)S(=O)(=O)Cc2ccc(Cl)cc2)c(F)c1 [Example 49] |  |  |
| > 100 | > 100 | 143 to 152 | COc1ccc(/C=C(\C#N)S(=O)(=O)Cc2ccc(Cl)cc2)cc1 [Example 50] |  |  |
| 25 to 50 | 25 to 50 | 121 to 126 | N#C/C(=C\c1ccc(Cl)cc1Cl)S(=O)(=O)Cc1ccc(Cl)cc1 [Example 51] |  |  |
| 10 to 25 | 10 to 25 | 143 to 148 | CCOc1ccc(/C=C(\C#N)S(=O)(=O)Cc2ccc(Cl)cc2)cc1OC [Example 55] |  |  |
| 50 to 100 | 25 to 50 | 155 to 165 | COc1cc(/C=C(\C#N)S(=O)(=O)Cc2ccc(Cl)cc2)cc(OC)c1 [Example 56] |  |  |
| > 100 | > 100 | 250 to 255 | N#C/C(=C\c1ccc(O)cc1O)S(=O)(=O)Cc1ccc(Cl)cc1 [Example 60] |  |  |
| > 100 | 50 to 100 | 145 to 155 | N#C/C(=C\c1ccc(Cl)c(Cl)c1Cl)S(=O)(=O)Cc1ccc(Cl)cc1 [Example 62] |  |  |
| 2.5 | 5 |  | COc1cc(OC)c(/C=C(\[N+](=O)[O-])S(=O)(=O)Cc2ccc(F)cc2)c(OC)c1 [Example 189] |  |  |
